How the values were obtained:
[1] = target: monomeric wt NP (nucleoprotein of influenza A virus) (Influenza A virus, UniProt P15682); assay: biochemical; type: binding
influenza A virus = conditions: mouse, in vivo; cited from earlier work
wt NP [2] = target: wt NP (Influenza A virus, UniProt P15682); type: biochemical
wt NP [3] = type: biochemical

Sequence of wt NP (Influenza A virus, UniProt P15682) (P15682 whole entry, looked up): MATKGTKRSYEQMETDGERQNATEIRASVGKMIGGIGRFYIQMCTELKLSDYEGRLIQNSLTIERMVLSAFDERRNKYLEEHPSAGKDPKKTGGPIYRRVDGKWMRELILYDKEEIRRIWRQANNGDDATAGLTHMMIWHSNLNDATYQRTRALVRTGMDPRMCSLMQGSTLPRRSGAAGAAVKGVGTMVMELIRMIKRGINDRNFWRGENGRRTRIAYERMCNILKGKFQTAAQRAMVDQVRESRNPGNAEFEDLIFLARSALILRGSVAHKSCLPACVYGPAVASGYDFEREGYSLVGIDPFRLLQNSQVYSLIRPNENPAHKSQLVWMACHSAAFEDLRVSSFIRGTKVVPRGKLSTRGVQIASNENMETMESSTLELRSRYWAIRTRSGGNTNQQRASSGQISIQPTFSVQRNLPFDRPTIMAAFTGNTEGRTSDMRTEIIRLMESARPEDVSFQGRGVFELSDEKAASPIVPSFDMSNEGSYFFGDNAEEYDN
Sequence of monomeric wt NP (nucleoprotein of influenza A virus) (P15682 whole entry, looked up): as above

Structure (SMILES): COc1ccc2cc([C@H](C)C(=O)O)ccc2c1 [Naproxen, naproxen]
- % Total inhibition [1]: 70 ± 7%
- inhibition at 1 µM ([1]; read-out: % Inhibition at 1 µM): 5%
- antiviral effects in mice (influenza A virus): antiviral effects
- lung bleeding (influenza A virus): reduced lung bleeding
- apparent size of the NP–RNA complex (wt NP [2]): 21–23 nm
- effect on NP oligomerization into trimers–tetramers (wt NP [2]): stabilized the monomeric form
- effect on RNA-free self-association of NP (wt NP [2]): stabilized monomeric NP and avoided trimers/tetramers formation
- effect on dimer formation (wt NP [2]): impeded dimer formation
- disruption of already assembled trimers (wt NP [3]): could not disrupt already assembled trimers
